pEC50: −log10 of the molar value. “Also recorded” adds a separate entry of the source.
What was measured:
DU145 cells [1] = assay: calcium mobilization assay in androgen insensitive prostate cancer DU145 cells; type: cell-based, human
PC-3 cells [2] = assay: cell growth (cell viability) in PC-3 cells; type: cell-based, human; details: for inhibition of cell growth (cell viability): PC-3
PC-3 cells [3] = assay: lamellipodia formation in PC-3 cells; type: cell-based, human; details: 30 μM; for effect on spontaneously activated lamellipodia: PC-3, serum-free, FIGS. 38-40; for inhibition of 18:1 LPA-induced lamellipodia formation: PC-3, FIGS. 42-44
DU145 cells [4] = assay: cell growth (cell viability) in DU145 cells; type: cell-based, human
PC-3 cells [5] = assay: calcium mobilization assay in androgen insensitive prostate cancer PC-3 cells; type: cell-based, human
Protocol: (§1) The procedures for these calcium mobilization assays are as followed: OVCAR3 cells and PC-3 cells were cultured in RPMI 1640 medium with 10% FBS (fetal bovine serum). HT29 cells were cultured in DMEM (high glucose) medium with 10% FBS. All cells were cultured at about 37° C. in a humidified atmosphere with 5% CO2. After starvation in serum-free medium for about 12-24 hours, cells were harvested and loaded with about 1 μM of Indo-1 AM in serum-free medium for about 45 min at 37° C. Cells were washed in PBS and resuspended at 2×10^6 cells/ml in a [Ca^2+]i assay buffer (Sodium chloride, NaCl, about 140 mM, potassium chloride, KCl, about 2 mM, magnesium chloride, MgCl2, about 1 mM, calcium chloride, CaCl2, about 2 mM, in about 25 mM HEPES buffer at pH 7.4 with about 10 mM of glucose). Cytoplasmic [Ca^2+]i was determined at an excitation wavelength of about 331 nm and an emission wavelength of 410 nm using a fluorescence spectrophotometer (Hitachi, F-4000). Approximately 3×10^6 cells were used for [Ca^2+]l determination in a stirred quartz cuvette kept at about 37° C. OMPT or 18:1 LPA was dissolved in about 0.1% BSA/PBS solution and applied immediately to the cells. To test other LPA derivatives of the invention, cells were exposed to the derivatives for about 3 minutes or for a period of various times in time course related experiments before a LPA agonist, such as 18:1 LPA, OMPT, or other LPAs was applied into the cuvette.
(§2) The concentration of calcium mobilization giving the half-maximal response (EC50) was obtained from the concentration-response curve fitted to a sigmoidal logistic equation, with the maximal calcium response set to 100% using the GraphPad Prism. Maximal response value is expressed as mean +/−s.e.m. EC50 value is expressed with 95% confidence.

HT29 cells [6] = assay: calcium mobilization assay in colon cancer HT29 cells; type: cell-based
Protocol: as §1, §2

AKT = AKT phosphorylation immunoblot in prostate cancer cells; type: cell-based, human; details: PC-3 and DU145 cells
Protocol: (§3) The cells were then lysed in SDA sample buffer or ice-cold X-100 lysis buffer (1% Triton X-100, 50 mM HEPES [pH7.4], 150 mM NaCl, 1.5 mM MgCl2, 1 mM EGTA, 10% glycerol, 100 mM NaF, 10 mM Na pyrophosphate, and 1 mM aprotinin). Total cellular protein was resolved by SDS/PAGE, transferred to immobilon [poly (vinylidene difluoride)], and immunoblotted with antibodies following the protocols provided by manufactures. Immunocomplexes were visualized with an enhanced chemiluminescence detection kit (Amersham Pharmacia) using horseradish peroxidase-conjugated secondary antibodies (Bio-Rad).

ERK1/2 = ERK1/2 (p42/p44-MAPK) phosphorylation immunoblot in prostate cancer cells; type: cell-based, human
Protocol: as §3

LPA3 receptor = target: T1, LPA3 receptor (Homo sapiens, UniProt Q9UBY5); assay: calcium mobilization in Sf9 insect cells expressing LPA3; type: cell-based; set-up: expressed in transfected cells; host or cells: Sf9 insect cells
T1 sequence (Q9UBY5 1-353): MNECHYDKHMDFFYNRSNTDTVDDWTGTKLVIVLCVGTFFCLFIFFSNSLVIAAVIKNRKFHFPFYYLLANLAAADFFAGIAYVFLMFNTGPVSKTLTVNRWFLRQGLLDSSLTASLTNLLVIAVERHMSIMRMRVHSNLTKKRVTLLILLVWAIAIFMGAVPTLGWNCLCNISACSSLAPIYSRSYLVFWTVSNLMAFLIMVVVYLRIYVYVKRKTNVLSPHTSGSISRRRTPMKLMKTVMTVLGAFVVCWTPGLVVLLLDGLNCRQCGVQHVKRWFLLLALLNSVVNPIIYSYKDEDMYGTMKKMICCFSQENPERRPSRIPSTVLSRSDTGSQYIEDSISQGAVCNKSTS

PC-3 cells [7] = assay: membrane ruffling and cell migration in PC-3 cells; type: cell-based, human
[8] = test system: vasodilator-stimulated protein (VASP); assay: VASP phosphorylation in PC-3 cells; type: cell-based, human
Protocol: as §3
To determine the mechanisms regulating LPA-induced cell migration, actin filament binding proteins that link receptor signaling to lamellipodia formation were evaluated.

LPA1 receptor = LPA1 receptor (Homo sapiens, UniProt Q92633); assay: calcium mobilization in Sf9 insect cells expressing LPA1; type: cell-based; details: Sf9 cells expressing LPA1
Sequence of LPA1 receptor (Q92633 whole entry): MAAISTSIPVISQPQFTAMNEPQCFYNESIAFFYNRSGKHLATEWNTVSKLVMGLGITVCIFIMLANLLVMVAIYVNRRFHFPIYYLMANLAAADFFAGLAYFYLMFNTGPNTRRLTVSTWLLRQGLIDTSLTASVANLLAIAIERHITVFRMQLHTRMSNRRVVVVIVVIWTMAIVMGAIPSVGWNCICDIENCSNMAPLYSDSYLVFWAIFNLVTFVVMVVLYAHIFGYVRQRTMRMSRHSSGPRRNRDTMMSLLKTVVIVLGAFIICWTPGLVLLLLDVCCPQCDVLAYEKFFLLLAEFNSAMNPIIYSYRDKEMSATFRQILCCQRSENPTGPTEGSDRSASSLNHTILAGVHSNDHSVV

p38-MAPK = p38-MAPK activation, phosphospecific antibodies; type: cell-based, human; details: PC-3 and DU145 cells
Protocol: as §3

PKA = PKA activation in PC-3 cells; type: cell-based, human
PC-3 cells [9] = assay: cellular proliferation and growth factor withdrawal-induced apoptosis; type: cell-based, human
LPA2 receptor = LPA2 receptor (Homo sapiens, UniProt Q9HBW0); assay: calcium mobilization in Sf9 insect cells expressing LPA2; type: cell-based; set-up: expressed in transfected cells; host or cells: Sf9 insect cells; details: Sf9 cells expressing LPA2; read-out: EC50 of increase in intracellular calcium concentration
Sequence of LPA2 receptor (Q9HBW0 whole entry): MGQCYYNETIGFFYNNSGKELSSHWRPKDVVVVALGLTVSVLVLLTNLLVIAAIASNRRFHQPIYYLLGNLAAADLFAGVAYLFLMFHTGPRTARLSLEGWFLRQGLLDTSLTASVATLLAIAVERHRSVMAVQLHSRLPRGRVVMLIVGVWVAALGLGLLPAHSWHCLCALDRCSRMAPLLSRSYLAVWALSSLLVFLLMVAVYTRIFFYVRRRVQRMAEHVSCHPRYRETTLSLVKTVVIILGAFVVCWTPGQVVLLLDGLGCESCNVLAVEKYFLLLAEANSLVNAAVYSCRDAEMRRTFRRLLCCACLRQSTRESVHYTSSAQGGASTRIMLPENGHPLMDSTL

HT29 cells [10] = assay: lamellipodia formation in colon cancer HT29 cells; type: cell-based; details: HT29, FIG. 26
DU145 cells [11] = assay: cell migration of DU145 cells; type: cell-based, human
OVCAR3 cells = assay: calcium mobilization assay in ovarian cancer OVCAR3 cells; type: cell-based, human; details: OVCAR3
Protocol: as §1, §2

Jurkat T cells = details: human Jurkat T cells; Xu et al. 1995; cited from earlier work
[12] = in the presence of 10 μM of 18:1 LPA, FIGS. 45-47

## CCCCCCCCCCCCCC(=O)OC[C@@H](O)COP(=O)(O)OCC(O)CO (mixture of isomers) [14:0 LPG, 1-myristoyl-2-hydroxy-sn-glycero-3-[phospho-rac-(1-glycerol)]]
DU145 cells [1]
  inhibition of 14:0 LPA-induced calcium mobilization: inhibited calcium mobilization; also recorded: effective inhibitor/antagonist
PC-3 cells [2]; [12]
  inhibition of cell growth (cell viability): inhibition of cell growth (cell viability) at high concentrations
PC-3 cells [3]
  effect on spontaneously activated lamellipodia: negligible effect
  inhibition of 18:1 LPA-induced lamellipodia formation: no inhibition

## CCCCCCCC/C=C\CCCCCCCC(=O)OC[C@@H](O)COP(=O)(O)OCC(O)CO (mixture of isomers) [18:1 LPG, 1-oleoyl-2-hydroxy-sn-glycero-3-[phospho-rac-(1-glycerol)]]
DU145 cells [1]; 10 and 30 μM in FIGS. 15-18
  antagonism of 18:1 LPA-induced calcium mobilization: completely antagonized
DU145 cells [1]; 10 and 30 μM in FIGS. 15-18, listed as 18:1-acyl-LPG
  antagonism of 18:1 LPA-induced calcium mobilization: shifted to the right
DU145 cells [4]
  reduction of cell viability / cell growth: reduced cell viability
PC-3 cells [5]; FIGS. 19-20
  inhibition of OMPT-induced calcium mobilization: effective inhibitor/antagonist
HT29 cells [6]; HT29 cells (only express LPA2), FIGS. 21-22
  inhibition of (18:1) LPA-induced calcium mobilization: effective inhibitors/antagonists
PC-3 cells [2]; [12]
  inhibition of cell growth (cell viability): inhibition of cell growth (cell viability) at high concentrations
PC-3 cells [2]; without LPA, FIGS. 46-47
  inhibition of cell growth (cell viability): inhibition of cell growth (cell viability) at high concentrations
PC-3 cells [2]; PC-3 cells
  reduction of cell viability / cell growth: reduced cell viability
PC-3 cells [3]
  effect on spontaneously activated lamellipodia: inhibit spontaneously activated lamellipodia
  inhibition of 18:1 LPA-induced lamellipodia formation: inhibition of 18:1 LPA-induced LPA2 receptor mediated lamellipodia formation

## CCCCCCCCCCCCCC(=O)OC[C@@H](O)COP(=O)(O)O [14:0 LPA, reference compound]
AKT
  activation of AKT: only marginal effects
ERK1/2; PC-3 and DU145 cells
  activation of p42/p44-MAPK: efficiently activates p42/p44-MAPK
PC-3 cells [5]
  pEC50: ~7.01
LPA3 receptor
  calcium mobilization: no elevated intracellular calcium concentration is observed
PC-3 cells [7]
  stimulation of membrane ruffling and cell migration: stimulate membrane ruffling and cell migration
[8]
  induction of VASP phosphorylation at Ser157 PKA site: induced phosphorylation
LPA1 receptor
  elevation of intracellular calcium: no elevated intracellular calcium concentration is observed
p38-MAPK
  activation of p38-MAPK: only marginal effects
PKA
  activation of PKA: efficiently activate PKA
PC-3 cells [9]
  cellular proliferation and prevention of growth factor withdrawal-induced apoptosis: does not increase cellular proliferation
LPA2 receptor
  pEC50: 10.00
HT29 cells [10]
  activation of lamellipodia: strong activator of lamellipodia

## O=S(=O)(NCCNC/C=C/c1ccc(Br)cc1)c1cccc2cnccc12 [H-89]
PC-3 cells [7]
  inhibition of membrane ruffling and cell migration induced by 18:1 LPA and 14:0 LPA: completely inhibited membrane ruffling and cell migration

## D-3-deoxy-phosphophatidyl-myo-inositol ether lipid [DPIEL]
ERK1/2; LNCaP cells, FIG. 8B
  inhibition of EGF-induced phosphorylation of ERK1/2: fails to reduce EGF-induced phosphorylation of ERK1/2
ERK1/2; PC-3 cells, DPIEL about 30 minutes, FIG. 8A
  inhibition of ERK1/2 phosphorylation activated by 18:1 LPA and 14:0 LPA: inhibits phosphorylation of the extracellular signal-regulating kinase (ERK1/2)
PC-3 cells [5]; FIG. 7
  suppression of maximum calcium mobilization induced by 18:1 LPA: about 56%
HT29 cells [6]; HT29 cells (express only LPA2), FIG. 6
  inhibition of (18:1) LPA-induced calcium mobilization: does not inhibit calcium mobilization
PC-3 cells [7]
  inhibition of LPA-induced cell migration: inhibits
[8]
  inhibition of VASP phosphorylation: inhibits phosphorylation of vasodilator stimulated protein (VASP)
DU145 cells [11]
  inhibition of LPA-induced cell migration: inhibits
OVCAR3 cells; DPIEL about 10 μM exposed group (control about 123.5+/−16.4 nM)
  maximum calcium response to OMPT: about 136.1+/−16.6 nM
OVCAR3 cells; about 20 μM DPIEL
  suppression of the maximum response to OMPT: about 36%

## EGF: epidermal growth factor
[8]
  induction of VASP phosphorylation at Ser157 PKA site: Neither OMPT nor EGF increased phosphorylation of VASP

## lysophosphatidyl glycerol [LPG]
Jurkat T cells
  inhibition of LPA signaling: inhibitor of LPA signaling

Reference: patent US20080071116A1, “Modulators of Lysophosphatidic Acid (Lpa) Signaling and the Use Thereof” (THE BOARD OF REGENTS OF THE UNIVERSITY OF TEXAS SYSTEM, priority 2004, published 2008)
